Test results as given in patent US12589090B2, “Compounds and methods for the treatment of degenerative disorders” (Aquilus Pharmaceuticals, Inc., priority 2019, dated 2026).

How the values were obtained:
[1] = In-vivo oral rat pharmacokinetics (Example 15); conditions: male Sprague-Dawley rats, dose level 10 mg/kg, 0.5% MC, plasma, mean
Experimental: Understanding the pharmacokinetics in species typically employed in preclinical animal testing is an essential component of drug discovery. […] Procedure: Six (6) male Sprague-Dawley rats were used. Fasting was conducted at least 16 hours prior to dose administration. Food was returned at approximately 4 hours post dose. The animals were placed into 2 groups of 3 animals per group. The oral (PO) formulation for Groups 1 & 2 were prepared on the day of dosing at a target concentration of 0.5 mg/mL in 0.5% Methylcellulose (400 cps) to produce a white, homogeneous suspension. Dosing was performed as outlined in Table 1:
Whole blood samples (0.250 mL; K2EDTA anticoagulant) were collected from each animal through a jugular vein catheter. Whole blood samples were collected from all animals pre-dose, and at 0.25, 0.5, 1, 2, 4, 8, 16, and 24 hours after dose administration. All blood samples were immediately placed on ice until processing. Whole blood samples were centrifuged at 2200×g for 10 minutes in a refrigerated centrifuge (5±3° C.) to isolate plasma. The plasma samples were transferred to individual polypropylene vials and immediately placed on dry ice before storage at nominally −20±5° C. The plasma samples sometime later were then thawed and extracted and analyzed by high pressure liquid chromatography (HPLC) coupled to Mass Spectrometry (MS) (Table 2). Pharmacokinetic parameters (Table 3) were estimated using WinNonlin® pharmacokinetic software (Version No. 5.2.1) using a non-compartmental approach consistent with the PO route of administration.

[2] = system: STZ-induced diabetic rats; test: STZ-induced diabetic rat model, tactile allodynia (Example 18); type: in vivo, Wistar rats
Experimental: (§1) Male Wistar rats (300-350 g) at the beginning of the experiment were used. A single dose (65 mg/kg, i.p.) of Streptozotocin (STZ) with 230 mg/kg (i.p) of nicotinamide were used for induction of diabetes in rats. The STZ was freshly dissolved in citrate buffer. Age matched control rats received the equal volume of the citrate buffer only. Forty days after injection of either STZ or citrate buffer, the rats were tested for diabetes mellitus (DM) using a drop of blood from the tail vein. The estimation of blood glucose level was made using OneTouch Select® Glucometer (LifeScan, Inc., USA). Rats with plasma glucose level>8 mmol/1 (145 mg/dl) were considered as diabetic. Following the diagnosis of DM, age matched healthy control and STZ-induced diabetic rats were divided randomly into four groups each containing six rats. Glucose level was estimated on weekly basis during the experiment.
(§2) Experimental design and drug treatment: Six weeks after the diabetic induction age matched healthy control and STZ-induced diabetic rats were divided randomly into four groups each containing six rats: naïve rats, vehicle (0.5% methylcellulose) treated DM group, 70 mg/kg (in 0.5% methylcellulose) Compound 5-treated DM group, 140 mg/kg (in 0.5% methylcellulose) Compound 5-treated DM group.
Behavioral testing: Tactile allodynia. […] The paw withdrawal thresholds were determined. […] The psychophysical 50% threshold was then calculated.
Data analysis: The results are presented as mean±SEM. In chronic pain experiment, four rats were excluded from the statistical analysis because the paw withdrawal threshold was >8 g (criterion taken from the study. Paw withdrawal threshold data were subjected to analysis of variance (ANOVA, General Linear Model procedure) with Dunnett's post hoc test was applied for between-group pair wise comparisons. Effects of Compound 5 on immunohistochemistry parameters were analyzed by one-way ANOVA (factors: Compound 5 treatment) followed by the Dunnett's test. Data were analyzed using SAS-STAT (SAS v.9.4, SAS Institute Inc., Cary, NC, USA). Data were considered significant at P<0.05.

[3] = system: STZ-induced diabetic rats; test: STZ-induced diabetic rat model, blood glucose concentration and HbA1c (Example 18); type: in vivo, Wistar rats
Experimental: as §1, §2

caspase-3 = test: Caspase-3 immunohistochemistry (optical density) in spinal cord and sciatic nerve of STZ diabetic rats (Example 18); type: in vivo, Wistar rats
Experimental: Sections from the biopsy specimens (brain and spinal tissue) were formalin-fixed and paraffin-embedded. For IHC examination, slides from the spinal cord and sciatic nervous were evaluated for caspase-3 (cas-3). Serial 3-5-μm thick sections were cut from paraffin embedded tissue blocks. For subsequent IHC staining glass slices were exposed to hot unmasking fluidized citrate buffer pH 6.0 for 15-18 min. After cooling, the glass with the slice was transferred into phosphate-buffered saline (PBS) pH 7.4. The sections were deparaffinized and then rehydrated in alcohol to tris-buffered saline. Endogenous peroxidase activity was blocked using 3% hydrogen peroxide followed by a protein block with 5% goat serum.
Affinity purified monoclonal IgG1, Caspase-3 p11 antibodies (sc-271759; Santa Cruz BioTechnology Inc., Dallas, TX, USA) were used as the primary antibody and applied at a 1:50 dilution 100 μl/glass for 30 min at room temperature. […]
Immunohistochemistry: Sections from the biopsy specimens were formalin-fixed and paraffin-embedded. For immunohistochemistry (IHC) examination, slides from the spinal cord and sciatic nervous were evaluated for caspase-3. […] (4 per group) and three sections from each animal were used for quantitative immunohistochemistry (12 measuring per each group). […]

Dissociation constant = type: physicochemical
[4] = Solubility testing (Example 27); type: physicochemical; conditions: for solubility in water: as the free acid

`Cc1ccc(C#Cc2ccc(S(=O)(=O)N[C@H](Cc3c[nH]c4ccccc34)C(=O)O)s2)cc1` [Compound 5, (R)-3-(1H-Indol-3-yl)-2-(5-p-tolylethynyl-thiophene-2-sulfonylamino)-propionic acid] gave an AUC(0-inf) [1] of 5150 ng·h/mL, an AUC(0-t) [1] of 5120 ng·h/mL and a Cmax [1] of 1580 ng/mL. For the same compound, the half-life [1] was 1.28 h, the “tactile allodynia (paw withdrawal threshold), post hoc analysis” value ([2]; 70 mg/kg, 14 days treatment, p<0.05 vs. vehicle) was “confirmed the effect” and the “tactile allodynia (paw withdrawal threshold)” value ([2]; 140 mg/kg, 14 days treatment) was “tendency to the analgesic effect”. For the same compound, the “threshold of the nociceptive response (tactile allodynia)” value ([2]; after 14 days of treatment) was “significantly decreased”, the “glycosylated hemoglobin (HbA1c) level” value ([3]; STZ diabetic rats treated during 2 weeks, vs. untreated DM rats) was “not significantly changed” and the blood glucose concentration ([3]; STZ diabetic rats, 70 or 140 mg/kg) was “no significant effects”. The “expression of caspase-3 in sciatic nerve” value (caspase-3; both doses (70 and 140 mg/kg), vs. vehicle-treated DM group) was “significant reduction”, the “caspase-3 in spinal cord” value (caspase-3; vs. vehicle group) was “statistically significant change” and the dissociation constant (Dissociation constant) was “around 3.4”. The “solubility in DMSO, acetone and methanol” value [4] was “soluble” and the solubility in water [4] was “poorly soluble”.

With `[2H]c1[nH]c2c([2H])c([2H])c([2H])c([2H])c2c1C[C@@H](NS(=O)(=O)c1ccc(C#Cc2ccc(C)cc2)s1)C(=O)O` [Compound 82] the dissociation constant (Dissociation constant) was “around 3.4”, the “solubility in DMSO, acetone and methanol” value [4] was “soluble” and the solubility in water [4] was “poorly soluble”.
